Assay results published in patent US8147852B2, “Modified azole compounds as antifungal and antibacterial agents” (Barrier Therapeutics, Inc., priority 2006, dated 2012).
Values after ≈ are worked out from the molar mass of the structure shown.

Experiments:
Assay type in all cases: cell-based
C. tropicalis = test: MIC100 against C. tropicalis; conditions: Candida tropicalis; C. tropicalis 19596(w.t), wild type; 48 h
C. albicans = test: MIC100 against C. albicans strains; conditions: Candida albicans, 48 h
C. glabrata = test: MIC100 against C. glabrata strains; conditions: Nakaseomyces glabratus, 48 h

MIC (C. tropicalis): 8.3 µM (≈ 3.45 µg/mL)
MIC (C. albicans; C. albicans 19457(w.t), wild type): 4.17 µM (≈ 1.74 µg/mL)
MIC (C. albicans; C. albicans 19507(r), resistant): 4.17 µM (≈ 1.74 µg/mL)
MIC (C. albicans; C. albicans 20126(r), resistant): 17 µM (≈ 7.07 µg/mL)
MIC (C. glabrata; C. glabrata 05/1032(r), resistant): 8.3 µM (≈ 3.45 µg/mL)
MIC (C. glabrata; C. glabrata 05/1414(r), resistant): 17 µM (≈ 7.07 µg/mL)
MIC (C. glabrata; C. glabrata 19371(w.t.), wild type): 4.17 µM (≈ 1.74 µg/mL)
SMILES: Clc1ccc(COC(Cn2ccnc2)c2ccc(Cl)cc2Cl)c(Cl)c1 (stereo not shown) [miconazole]
